{"source": "patent US7138361B2", "about": "“Herbicidal heterocycles” (E. I. du Pont de Nemours and Company, priority 2000, dated 2006)", "type_in_all_cases": "in vivo", "key": {"[1]": {"tested_on": "barnyardgrass (Echinochloa crus-galli)", "assay": "Test B postemergence", "settings": "13 to 15 days", "procedure,_shortened": "(§1)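 Ratings on a 0 to 100 visual scale (100 complete control) compare treated plants with controls 13 to 15 days after application. Treatments were pre- or postemergence sprays of compound in non-phytotoxic solvent with surfactant.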"}, "corn (Zea mays) [2]": {"tested_on": "corn (Zea mays)", "assay": "Test B postemergence", "settings": "13 to 15 days", "procedure,_shortened": "as §1"}, "[3]": {"tested_on": "wheat (Triticum aestivum)", "assay": "Test B postemergence", "settings": "13 to 15 days", "procedure,_shortened": "as §1"}, "wild oat (Avena fatua)": {"tested_on": "wild oat (Avena fatua)", "assay": "Test B postemergence", "settings": "13 to 15 days", "procedure,_shortened": "as §1"}, "Nightshade [4]": {"tested_on": "Nightshade", "assay": "Test C preemergence"}, "corn (Zea mays) [5]": {"tested_on": "corn (Zea mays)", "assay": "Test C preemergence", "settings": "for Plant response rating (0 to 100), Corn: visual evaluation after 12 to 14 days", "procedure,_shortened": "(§2)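 Seeds are planted and treated before emergence; for the postemergence test, plants at 1- to 4-leaf stage (2–18 cm) receive the same formulation, a solvent blend containing surfactant. Plants stay in the greenhouse 12–14 days, then response is scored visually from 0 (none) to 100 (complete control).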"}, "[6]": {"tested_on": "johnsongrass (Sorghum halepense)", "assay": "Test C preemergence", "settings": "for Plant response rating (0 to 100), Johnsongrass: visual evaluation after 12 to 14 days", "procedure,_shortened": "as §2"}, "kochia (Kochia scoparia)": {"tested_on": "kochia (Kochia scoparia)", "assay": "Test C preemergence", "settings": "for Plant response rating (0 to 100), Kochia: visual evaluation after 12 to 14 days", "procedure,_shortened": "as §2"}, "[7]": {"tested_on": "lambsquarters (Chenopodium album)", "assay": "Test C preemergence", "procedure,_shortened": "as §2"}, "[8]": {"tested_on": "pigweed (Amaranthus retroflexus)", "assay": "Test C preemergence", "procedure,_shortened": "as §2"}, "soybean (Glycine max)": {"tested_on": "soybean (Glycine max)", "assay": "Test C preemergence", "procedure,_shortened": "as §2"}, "[9]": {"tested_on": "woolly cupgrass (Eriochloa villosa)", "assay": "Test C preemergence", "settings": "for Plant response rating (0 to 100), Cupgrass, Woolly: visual evaluation after 12 to 14 days", "procedure,_shortened": "as §2"}, "[10]": {"tested_on": "yellow nutsedge (Cyperus esculentus)", "assay": "Test C preemergence", "procedure,_shortened": "as §2"}, "[11]": {"tested_on": "barnyardgrass (Echinochloa crus-galli)", "assay": "Test C flooded paddy test", "settings": "for Barnyardgrass plant response rating: Flooded Paddy, scale 0 to 100, 0 no effect, 100 complete control", "procedure,_shortened": "(§3)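 Visual injury score, 0 (no effect) to 100 (complete control), relative to controls. Paddy plants treated at 2-leaf stage; greenhouse hold 12–14 d before rating.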"}, "[12]": {"tested_on": "duck salad (Heteranthera limosa)", "assay": "Test C flooded paddy test", "settings": "for Ducksalad plant response rating: Flooded Paddy, scale 0 to 100, 0 no effect, 100 complete control; for Plant response rating, Ducksalad: flooded paddy test, scale 0 to 100 (0 no effect, 100 complete control)", "procedure,_shortened": "as §3"}, "rice (Oryza saliva)": {"tested_on": "rice (Oryza saliva)", "assay": "Test C flooded paddy test", "settings": "for Rice plant response rating: Flooded Paddy, scale 0 to 100, 0 no effect, 100 complete control; for Plant response rating, Rice: flooded paddy test, scale 0 to 100 (0 no effect, 100 complete control)", "procedure,_shortened": "as §3"}, "[13]": {"tested_on": "smallflower flatsedge (Cyperus difformis)", "assay": "Test C flooded paddy test", "settings": "for Flatsedge plant response rating: Flooded Paddy, scale 0 to 100, 0 no effect, 100 complete control; for Plant response rating, Flatsedge: flooded paddy test, scale 0 to 100 (0 no effect, 100 complete control)", "procedure,_shortened": "as §3"}, "Nightshade [14]": {"tested_on": "Nightshade", "assay": "Test C preemergence", "settings": "Rate 500 g/ha, visual evaluation after 12 to 14 days"}, "Sunflower": {"tested_on": "Sunflower", "assay": "Test C preemergence", "settings": "Rate 250 g/ha, scale 0 to 100, 0 no effect, 100 complete control"}, "[15]": {"settings": "Rate 125 g/ha, scale 0 (no effect) to 100 (complete control)"}, "[16]": {"settings": "Rate 500 g/ha, scale 0 to 100, 0 is no effect, 100 is complete control"}, "[17]": {"settings": "Rate 125 g/ha, scale 0 to 100, 0 no effect, 100 complete control"}, "[18]": {"settings": "preemergence, Rate 62 g/ha, scale 0 to 100"}, "[19]": {"settings": "preemergence, Rate 500 g/ha, visual evaluation after 12 to 14 days"}, "[20]": {"settings": "preemergence, Rate 250 g/ha, scale 0 to 100, 0 no effect, 100 complete control"}}}
{"smiles": "CCC(CC)c1ccn(C2CCN(c3cccc(OC(C)C)c3)C2=O)n1", "note": "(stereo not drawn) [Compound 84]", "values": [{"measurement": "Plant response rating, Barnyardgrass", "setting": "[1]; [15]", "result": 0}, {"measurement": "Plant response rating, Barnyardgrass", "setting": "[1]; [16]", "result": 80}, {"measurement": "Plant response rating, Corn", "setting": "corn (Zea mays) [2]; [15]", "result": 0}, {"measurement": "Plant response rating, Corn", "setting": "corn (Zea mays) [2]; [16]", "result": 0}, {"measurement": "Plant response rating, Wheat", "setting": "[3]; [15]", "result": 0}, {"measurement": "Plant response rating, Wheat", "setting": "[3]; [16]", "result": 0}, {"measurement": "Plant response rating, Wild Oat", "setting": "wild oat (Avena fatua); [15]", "result": 0}, {"measurement": "Plant response rating, Wild Oat", "setting": "wild oat (Avena fatua); [16]", "result": 10}, {"measurement": "Plant response rating, Nightshade", "setting": "Nightshade [4]; Rate 62 g/ha, scale 0 to 100", "result": 30}, {"measurement": "Plant response rating, Nightshade", "setting": "Nightshade [4]; [17]", "result": 50}, {"measurement": "Plant response rating, Nightshade", "setting": "Nightshade [4]; Rate 250 g/ha, scale 0 to 100, 0 no effect, 100 complete control", "result": 100}, {"measurement": "Plant response rating, Corn", "setting": "corn (Zea mays) [5]; [17]", "result": 0}, {"measurement": "Plant response rating, Corn", "setting": "corn (Zea mays) [5]; [18]", "result": 0}, {"measurement": "Plant response rating (0 to 100), Corn", "setting": "corn (Zea mays) [5]; preemergence, Rate 250 g/ha", "result": 0}, {"measurement": "Plant response rating (0 to 100), Corn", "setting": "corn (Zea mays) [5]; preemergence, Rate 500 g/ha", "result": 0}, {"measurement": "Plant response rating, Johnsongrass", "setting": "[6]; [17]", "result": 0}, {"measurement": "Plant response rating, Johnsongrass", "setting": "[6]; [18]", "result": 0}, {"measurement": "Plant response rating (0 to 100), Johnsongrass", "setting": "[6]; preemergence, Rate 250 g/ha", "result": 0}, {"measurement": "Plant response rating (0 to 100), Johnsongrass", "setting": "[6]; preemergence, Rate 500 g/ha", "result": 0}, {"measurement": "Plant response rating, Kochia", "setting": "kochia (Kochia scoparia); [17]", "result": 100}, {"measurement": "Plant response rating, Kochia", "setting": "kochia (Kochia scoparia); [18]", "result": 80}, {"measurement": "Plant response rating (0 to 100), Kochia", "setting": "kochia (Kochia scoparia); preemergence, Rate 250 g/ha", "result": 100}, {"measurement": "Plant response rating (0 to 100), Kochia", "setting": "kochia (Kochia scoparia); preemergence, Rate 500 g/ha", "result": 100}, {"measurement": "Plant response rating, Lambsquarters", "setting": "[7]; [17]", "result": 100}, {"measurement": "Plant response rating, Lambsquarters", "setting": "[7]; [18]", "result": 100}, {"measurement": "Plant response rating (0 to 100), Lambsquarters", "setting": "[7]; [19]", "result": 100}, {"measurement": "Plant response rating, Lambsquarters", "setting": "[7]; [20]", "result": 100}, {"measurement": "Plant response rating, Pigweed", "setting": "[8]; [17]", "result": 0}, {"measurement": "Plant response rating, Pigweed", "setting": "[8]; [18]", "result": 90}, {"measurement": "Plant response rating (0 to 100), Pigweed", "setting": "[8]; [19]", "result": 90}, {"measurement": "Plant response rating, Pigweed", "setting": "[8]; [20]", "result": 100}, {"measurement": "Plant response rating, Soybean", "setting": "soybean (Glycine max); [17]", "result": 0}, {"measurement": "Plant response rating, Soybean", "setting": "soybean (Glycine max); [18]", "result": 0}, {"measurement": "Plant response rating (0 to 100), Soybean", "setting": "soybean (Glycine max); [19]", "result": 0}, {"measurement": "Plant response rating, Soybean", "setting": "soybean (Glycine max); [20]", "result": 0}, {"measurement": "Plant response rating, Cupgrass, Woolly", "setting": "[9]; [17]", "result": 90}, {"measurement": "Plant response rating, Cupgrass, Woolly", "setting": "[9]; [18]", "result": 60}, {"measurement": "Plant response rating (0 to 100), Cupgrass, Woolly", "setting": "[9]; preemergence, Rate 250 g/ha", "result": 90}, {"measurement": "Plant response rating (0 to 100), Cupgrass, Woolly", "setting": "[9]; preemergence, Rate 500 g/ha", "result": 100}, {"measurement": "Plant response rating, Nutsedge", "setting": "[10]; [17]", "result": 0}, {"measurement": "Plant response rating, Nutsedge", "setting": "[10]; [18]", "result": 0}, {"measurement": "Plant response rating (0 to 100), Nutsedge", "setting": "[10]; [19]", "result": 0}, {"measurement": "Plant response rating, Nutsedge", "setting": "[10]; [20]", "result": 0}, {"measurement": "Barnyardgrass plant response rating", "setting": "[11]; Rate 250 g/ha", "result": 100}, {"measurement": "Barnyardgrass plant response rating", "setting": "[11]; Rate 500 g/ha", "result": 100}, {"measurement": "Plant response rating, Barnyardgrass", "setting": "[11]; flooded paddy test, Rate 62 g/ha, scale 0 to 100 (0 no effect, 100 complete control)", "result": 80}, {"measurement": "Ducksalad plant response rating", "setting": "[12]; Rate 250 g/ha", "result": 100}, {"measurement": "Ducksalad plant response rating", "setting": "[12]; Rate 500 g/ha", "result": 100}, {"measurement": "Plant response rating, Ducksalad", "setting": "[12]; Rate 62 g/ha", "result": 90}, {"measurement": "Plant response rating, Ducksalad", "setting": "[12]; Rate 125 g/ha", "result": 90}, {"measurement": "Rice plant response rating", "setting": "rice (Oryza saliva); Rate 250 g/ha", "result": 30}, {"measurement": "Rice plant response rating", "setting": "rice (Oryza saliva); Rate 500 g/ha", "result": 90}, {"measurement": "Plant response rating, Rice", "setting": "rice (Oryza saliva); Rate 62 g/ha", "result": 0}, {"measurement": "Plant response rating, Rice", "setting": "rice (Oryza saliva); Rate 125 g/ha", "result": 0}, {"measurement": "Flatsedge plant response rating", "setting": "[13]; Rate 250 g/ha", "result": 100}, {"measurement": "Flatsedge plant response rating", "setting": "[13]; Rate 500 g/ha", "result": 100}, {"measurement": "Plant response rating, Flatsedge", "setting": "[13]; Rate 62 g/ha", "result": 90}, {"measurement": "Plant response rating, Flatsedge", "setting": "[13]; Rate 125 g/ha", "result": 90}, {"measurement": "Plant response rating (0 to 100), Nightshade", "setting": "Nightshade [14]", "result": 100}, {"measurement": "Plant response rating, Sunflower", "setting": "Sunflower", "result": 30}]}
